According to article PMC11778240, “Synthesis and preclinical evaluation of tigilanol tiglate analogs as latency-reversing agents for the eradication of HIV” (Science Advances, 2025):
Where two headings read alike, the source gives them in different places.

Assays:
[1] = biological target: T1, PKC-β-I (Homo sapiens, UniProt P05771); experiment: Cell-free PKC competition binding assay against 3H-PDBu; settings: for PKC-β selectivity: Fig. 7A, PKC-β over PKC-δ; for logKi (best-fit value), PKC-β-I: log of Ki in nM
T1 construct: purchased Invitrogen
T1 sequence (P05771 whole entry): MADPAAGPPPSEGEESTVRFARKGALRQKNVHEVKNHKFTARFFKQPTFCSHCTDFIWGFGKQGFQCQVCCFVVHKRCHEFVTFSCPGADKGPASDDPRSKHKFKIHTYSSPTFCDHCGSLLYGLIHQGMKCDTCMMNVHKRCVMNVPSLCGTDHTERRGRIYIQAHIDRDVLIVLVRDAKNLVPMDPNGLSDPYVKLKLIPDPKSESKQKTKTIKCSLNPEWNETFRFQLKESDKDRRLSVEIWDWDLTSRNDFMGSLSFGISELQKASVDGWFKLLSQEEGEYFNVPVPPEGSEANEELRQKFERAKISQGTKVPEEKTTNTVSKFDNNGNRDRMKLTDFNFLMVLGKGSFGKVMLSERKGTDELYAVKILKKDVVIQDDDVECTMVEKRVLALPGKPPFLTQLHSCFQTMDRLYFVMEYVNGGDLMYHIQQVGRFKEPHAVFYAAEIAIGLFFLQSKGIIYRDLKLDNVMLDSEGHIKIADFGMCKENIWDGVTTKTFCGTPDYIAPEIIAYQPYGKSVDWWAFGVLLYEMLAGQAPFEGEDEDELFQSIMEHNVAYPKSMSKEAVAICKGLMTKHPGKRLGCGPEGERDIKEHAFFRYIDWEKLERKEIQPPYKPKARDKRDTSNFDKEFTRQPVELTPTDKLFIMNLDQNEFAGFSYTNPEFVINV
Description: With a diverse library of compounds bearing unique functionalities on the A-, B-, and C-rings (Fig. 6), we began to explore how these modifications affect PKC binding (Fig. 7A), NF-κB activation (Fig. 7B), cell permeation and PKC translocation (Fig. 7, C and D), and latency reversal in J-Lat cells (Fig. 8). […] We conducted this assay with phosphatidyl serine vesicles in solution that mimic the cellular membrane and play a critical role in the binding of small molecules to the PKC C1 domain (Fig. 7A) ([64]).
Cell-free PKC Binding Assay
The protein kinase C (PKC) affinity of EBC-46 and EBC-46 analogs was determined via […]
entails a glass-fiber filtration method to determine bound radioligand. The method of determining the radioligand Kd is also described.
Tris HCl (Fisher, ≥ 99%, stored at room temperature)
Phosphatidylserine (Avanti Polar Lipids, porcine, 25 mg/mL CHCl3 solution, stored at - […]
Bovine serum albumin (Sigma -Aldrich, ≥ 98%, globulin free, protease free, stored at 4 […]
Human PKC-β-I-GST fusion protein (Invitrogen, aliquoted and stored at -78 °C) Human PKC-δ-GST fusion protein (Invitrogen, aliquoted and stored at -78 °C) Glass-fiber filters (Whatman GF/B) […]
a final concentration of 500 nM.
Preparation of phosphatidylserine (PS) vesicles :
For every 96 samples, 3.5 mg phosphatidylserine (140 μL) (25 mg/mL CHCl3 solution) was concentrated by removing chloroform under reduced pressure. The phosphatidylserine residue was resuspended in freshly prepared PKC binding assay buffer (3.5 mL), capped, and then thoroughly mixed by alternating between sonicating and vortexing, in 10 second intervals for 1 minute or until a cloudy white mixture (Branson Sonifier 250, power = 2, 50% duty cycle). The resulting cloudy white mixture (1 mg/mL) was stored on ic e until use.
Preparation of the "master mix" Solution :
Constituent Stock concentration (final concentration/amount in “master mix”):
PS vesicles (0.103 mg/mL)
Deionized H2O - Final vol of 30 mL
Preparation of PKC binding assay buffer:
For every 96 samples, to a 50 mL polypropylene tube was added Tris -HCl (pH 7.4, 1 M, 1.5 mL), KCl (1 M, 3 mL), CaCl2 (0.1 M, 35 μL – conventional isoforms only), and bovine serum albumin (60 mg). This mixture was diluted to 30 mL with deionized H2O and mixed gently. The buffer was […]
Preparation of PKC isoform solution:
For every 96 samples, PKC isoform solution was prepared by dissolving a 4 μg aliquot of the indicated recombinant human PKC isoform into 26.5 mL of PKC binding assay buffer. The diluted PKC was stored on ice for immediate use.
Preparation of PKC “master mix” solution:
To the PKC-isoform solution was added 1 mg/mL PS vesicles solution (3.30 mL), and 500 nM […]
The resulting “master mix” solution was vortexed and stored on […]
Preparation of analog compound dilutions:
Compound dilutions were prepared with filtered DMSO by serially diluting from a chosen "high" concentration. For the saturation binding experiment (radioligand Kd determination), the maximum radioligand concentration used was 4.0 nM with 2-fold dilutions between data points […]
the middle of the binding curve.
For the competition binding experiment (analog Ki determination), 7 or 14 concentrations were used to define the inhibition curve, and compounds dilutions changed by factors of 2 or √2 between data points. The concentrations were chosen such that the in-assay concentration for the data points in the middle of the binding curve were approximately equal to the IC50 of the compound (if the IC50 is unknown, an exploratory binding assay is recommended prior to Ki determination). For assays with one compound per sheet, the √2-fold dilutions were prepared for the concentrations in […]
PKC binding assay protocol (Saturation -binding experiment and Competition -binding experiment)
1) Glass-fiber filters were prepared by soaking them in a solution of aqueous polyethyleneimine

[2] = test system: J-Lat clone 10.6 cells; experiment: J-Lat HIV latency reversal assay (GFP expression); format: cell-based, Human; settings: J-Lat 10.6, 48 hours; for HIV latency reversal in words: ascending concentrations
Description: Having shown that our lead compounds bind cell-free PKC isoforms, enter cells, translocate PKC-GFP fusion proteins, and activate NF-κB transcription factors, we next set out to determine whether our analogs were capable of reversing HIV from latency. We performed in vitro assays using T lymphocyte J-Lat clone 10.6, which contains a latent near full-length replication-incompetent integrated HIV DNA genome ([72]). J-Lat 10.6 lacks two viral genes, env and nef, which encode for the envelope protein and an accessory protein, respectively, and thus cannot initiate a spreading HIV infection. The integrated HIV provirus also encodes a GFP reporter gene, allowing latency reversal to be measured by quantification of GFP expression (fig. S1). […] In this latency reversal assay, we quantified GFP expression 48 hours after compound addition and observed bryostatin 1 to be maximally effective at concentrations of 40 nM or higher with latency reversal in 12% of cells (Fig. 8). Given the efficacy of bryostatin 1 as an LRA ([73], [74]), EBC-46 and many of its analogs tested in this J-Lat assay induced latency reversal in >90% of cells. […] SUW427, an esterase-releasable prodrug of EBC-46, also performed similarly to EBC-46 with a maximum efficacy of latency reversal in >90% of cells at a dose of 250 nM. […] The gradual release of EBC-46 from its prodrug form provides an alternative mode of administration that avoids the bolus effect associated with rapid drug administration ([17]). […] This is consistent with its lack of activity in the NF-κB activation assay and its design as a negative control as it is structurally similar to EBC-46 but unable to bind to the C1 domain of PKC at the concentrations used in this assay as it lacks a complete pharmacophore.
HIV latency reversal in-vitro assay
Human T Lymphocyte J-Lat Full Length Cell Line 10.6 (cat #9849) was obtained through the NIH HIV Reagent Program, Division of AIDS, NIAID, NIH and was contributed to the NIH HIV Reagent Program by Dr. Eric Verdin (70). J-Lat 10.6 cells were plated at 5 × 10^5 cells in 180 μL of RF10 media consisting of RPMI media supplemented with 1% Penicillin/Streptomycin and 10% Fetal Bovine Serum (FBS) in 96 -well U -bottom plates. J -Lat 10.6 cells were then stimulated for 48 hr by adding 20 μL of newly designed and synthesized tigilanol tiglate analogs, PKC modulators (bryostatin 1) as our positive control or med ia only (mock) as our negative control. Our negative control was RF10 media as the tigilanol tiglate analogs were freshly diluted with RF10 prior to plating. The final volume was 200 μL per well. Experiments were performed in three independent biological replicates, each completed in technical duplicates (n = 6). After 48 hr stimulation, 96 - well U -bottom plates were centrifuged at 296 RCF for 7 minutes to pellet cells, which were resusp ended in 200 μL of freshly prepared 2% paraformaldehyde (PFA) in PBS. GF P expression was measured 24 -hours post -fixation using the FITC channel on a LSR Fortessa (BD Biosciences) flow cytometer. Data analysis was conducted with FlowJo software version 10.8.1.

[3] = HotNM 2.5, HotKdNM 0.37, supplement fit, read-out: Ki (best-fit value), PKC-β-I
[4] = competition against radiolabeled PDBu, Fig. 7A and text, read-out: Ki PKC-β

Compound: CC=C(C)C(=O)OC1C(C)C2(O)C(C3OC3(COC)C(O)C3(O)C(=O)C(C)=CC32)C2C(C)(C)C12OC(=O)C(C)CC (centres unmarked) [SUW426]
- PKC-β selectivity [1]: 1.8
- Ki [1, 3]: 396 nM
- decrease in PKC binding affinity / potency compared to EBC-46 ([1]; PKC-β and PKC-δ): approximately 250 fold
- Ki [1, 4]: 400 nM
- logKi (best-fit value), PKC-β-I ([1]; HotNM 2.5, HotKdNM 0.37): 2.598
- HIV latency reversal in words [2]: did not produce latency reversal at any tested concentration

Compound: C/C=C(\C)C(=O)O[C@@H]1[C@@H](C)[C@@]2(O)[C@H]([C@@H]3C(C)(C)[C@]13OC(=O)c1ccccc1)[C@@H]1O[C@]1(CO)[C@@H](O)[C@]1(O)C(=O)C(C)=C[C@H]12 [SUW428]
- selectivity for PKC-β over PKC-δ [1]: > 12 fold
- PKC-β selectivity [1]: 12.5
- Ki [1, 3]: 5.12 nM
- PKC binding affinity and selectivity in words ([1]; PKC-β and PKC-δ): approximately three times lower affinity for PKC-β compared to EBC-46
- Ki [1, 4]: 5.1 nM
- logKi (best-fit value), PKC-β-I ([1]; HotNM 2.5, HotKdNM 0.37): 0.7091
- HIV latency reversal in words [2]: required a higher dose than EBC-46 before we detected reversal activity

Compound: CC[C@H](C)C(=O)O[C@@]12[C@H](OC(C)(C)C)[C@@H](C)[C@@]3(O)[C@H]([C@@H]1C2(C)C)[C@@H]1O[C@]1(CO)[C@@H](O)[C@]1(O)C(=O)C(C)=C[C@H]13 [SUW430]
- selectivity for PKC-β over PKC-δ [1]: 40 fold
- Ki [1, 3]: 1.47 nM
- Ki [1, 4]: 1.5 nM
- logKi (best-fit value), PKC-β-I ([1]; HotNM 2.5, HotKdNM 0.37): 0.1684
- HIV latency reversal in words [2]: required a higher dose than EBC-46 before we detected reversal activity

Compound: C/C=C(\C)C(=O)O[C@@H]1[C@@H](C)[C@@]2(O)[C@H]([C@@H]3C(C)(C)[C@]13OC(=O)Cc1cccc3ccccc13)[C@@H]1O[C@]1(CO)[C@@H](O)[C@]1(O)C(=O)C(C)=C[C@H]12 [SUW431]
- selectivity for PKC-β over PKC-δ [1]: 1.4 fold
- stronger binding for PKC-β compared to EBC-46 [1]: ~ 20 fold
- Ki [1, 3]: 0.079 nM
- PKC binding affinity and selectivity in words ([1]; PKC-β and PKC-δ): remarkable affinities in the picomolar range
- logKi (best-fit value), PKC-β-I ([1]; HotNM 2.5, HotKdNM 0.37): -1.102
- Ki ([1]; read-out: binding for PKC-β (Ki)): 0.079 nM
- latency reversal, % of cells ([2]; 40 nM): 90 % of cells
- HIV latency reversal in words [2]: effectively activates latent HIV at substantially lower concentrations than EBC-46
